One assay addresses T1, PI3K γ (Homo sapiens, UniProt P48736).
T1 construct: made in house
The experiment in a line: In vitro enzyme assay PI3K γ (recombinant). Type of assay: biochemical. The following applies: recombinant γ isoform. On the procedure: (§1) In vitro enzyme assays were conducted as a primary screen to determine drug candidate isoform affinity and specificity.
(§2) The α and β isoforms of the PI3K were immunoprecipitated from a platelet lysate using an antibody that recognised the p85 regulatory subunit common to both forms of the enzyme. The γ isoform was produced as a recombinant protein in the Thrombogenix laboratories. […] Standard phosphorylation assays using phosphatidylinositol and ^32P were used to measure the enzyme activity in the immunoprecipates in the presence or absence of an inhibitor. Enzyme activity was determined over a range of inhibitor concentrations to establish an IC50 value.

Assay [1] has as its system platelet thrombus formation. The experiment in a line: Platelet thrombus formation under flow, citrated whole blood, vWf-coated microcapillary tubes (LDH). Type of assay: cell-based. Conditions: 50, 100, 200 μM, 600 s^−1. As to the method: Citrated whole blood was pretreated with 50, 100 or 200 μM TGX-84, or control buffer (0.1% DMSO) for 10 minutes at 37° C. Blood was perfused through von Willebrand factor-(vWf) coated microcapillary tubes for 2 minutes at 600 s^−1. Non-adherent cells were removed by perfusion of buffer for 2 minutes at 600 s^−1 and any adherent erythrocytes lysed through treatment with 1% ammonium oxalate. Adherent platelets were then lysed through addition of 1% Triton X-100 and lactate dehydrogenase (LDH) levels (U/L) analysed by spectrophotometry.

For a further assay, the target named is tyrosine kinase EGF (Homo sapiens, UniProt P00533). Nature of the assay: Enzyme screening assay: tyrosine kinase EGF. The assay is classed as biochemical. The source says: (§3) The two leading compounds of the quinolone series, TGX155 and TGX84 were screened for activity against seven enzymes related to PI3K in function or substrate specificity, viz: ATPase, PDE4, tyrosine kinases EGF and fyn, protein kinases A and C, and tyrosine phosphatase.

The target in a further assay is PI3K α/β isoforms. Nature of the assay: In vitro enzyme assay PI3K α/β. The following applies: immunoprecipitated from platelet lysate. Type of assay: biochemical. As to the method:
as §1, §2

A further assay addresses T2, PI4K.
T2 construct: PI4K was isolated from platelets in a similar manner using a PI4K specific antibody
The experiment in a line: In vitro enzyme assay PI4K. Type of assay: biochemical. The following applies: PI4K isolated from platelets; read-out: IC50 against PI4K. On the procedure:
In vitro enzyme assays were conducted as a primary screen to determine drug candidate isoform affinity and specificity. The affinity of two leading compounds of the quinolone series (TGX84 and TGX155) for a closely related enzyme family, PI4K, was also determined to maximise compound specificity and therefore minimise potential adverse biochemical events.
The α and β isoforms of the PI3K were immunoprecipitated from a platelet lysate using an antibody that recognised the p85 regulatory subunit common to both forms of the enzyme. The γ isoform was produced as a recombinant protein in the Thrombogenix laboratories. PI4K was isolated from platelets in a similar manner using a PI4K specific antibody. Standard phosphorylation assays using phosphatidylinositol and ^32P were used to measure the enzyme activity in the immunoprecipates in the presence or absence of an inhibitor. Enzyme activity was determined over a range of inhibitor concentrations to establish an IC50 value.

A further assay concerns the target tyrosine kinase fyn (Homo sapiens, UniProt P06241). Nature of the assay: Enzyme screening assay: tyrosine kinase fyn. The assay is classed as biochemical.
Description: as §3

Assay [2] relates to PI 3-kinase immunoprecipitated from human platelets. The experiment in a line: In vitro PI 3-kinase assay (32P incorporation into PI). The assay is classed as biochemical. Conditions: PI 3-kinase from human platelets, PI substrate. As to the method: The effect of TGX-25, TGX-33, TGX-37, TGX-40, TGX-41, TGX-57, TGX-84, TGX-90, TGX-93, TGX-98, TGX-99, TGX-101, TGX-106, TGX-107, TGX-108, TGX-109, TGX-111, TGX-112, TGX-113, TGX-115, TGX-120, TGX-121, TGX-123, TGX-124, TGX-126, TGX-127, TGX-130 or TGX-131on PI 3-kinase activity was determined using an in vitro PI 3-kinase assay. This assay was performed using PI 3-kinase immunoprecipitated from human platelets as the enzyme and PI as the substrate. The PI 3-kinase activity was quantitated by measuring the enzymatic incorporation of [^32P] into PI, forming PI([^32P]-3)P, as previously described (Susa et al., 1992, The Journal of Biological Chemistry 267(32):22951-22956.
Washed human platelets were lysed in Triton X-100 lysis buffer (10 mM Tris, pH 7.4, 1% Triton X-100, 2 mM EDTA, 1 mM PMSF) for 30 minutes. The Triton X-100 insoluble fraction was removed by centrifugation of the cell lysates at 15,000 g for 10 minutes. PI 3-kinase was immunoprecipitated by mixing 500 μg of the cell lysate with 1 μg of a rabbit anti-rat antibody against the p85/110 form of PI 3-kinase and 30 μl of 50% Protein A-sepharose beads for 2 hours at 4° C. The Protein A-sepharose-bound PI 3-kinase was isolated by pelleting the beads at 15,000 g for 5 seconds, and washing three times with ice-old Triton X-100 lysis buffer followed by four washes with PI 3-kinase assay buffer (20 mM HEPES, pH 7.4, 1 mM EGTA, 5 mM MgCl2).
PI stored in CHCl3 was dried under N2, resuspended in the lipid buffer (50 mM HEPES, pH 7.2, 1 mM EDTA) at a final concentration of 330 μg/ml, and sonicated for 6 minutes on ice. PI([^32P]-3)P was generated by mixing the immunoprecipitated PI 3-kinase for 20 minutes with 40 μl of the PI, 10 μl of ATP (1 mM) and ^32P-r-ATP (0.5 μCi, 1 μCi/nmol), 10 μl of 10× kinase buffer, in a final assay volume of 100 μl adjusted with H2O. TGX-25, TGX-33, TGX-37, TGX-40, TGX-41, TGX-57, TGX-84, TGX-90, TGX-93, TGX-98, TGX-99, TGX-101, TGX-106, TGX-107, TGX-108, TGX-109, TGX-111, TGX-112, TGX-113, TGX-115, TGX-120, TGX-121, TGX-123, TGX-124, TGX-126, TGX-127, TGX-130 or TGX-131 was preincubated with the PI 3-kinase for 5 minutes prior to the addition of ATP. The assay was terminated with 100 μl of 1 N HCl, and the PI([^32P]-3)P product extracted with 200 μl chloroform:methanol (1:1) and 500 μl 2 M KCl. The PI([^32P]-3)P in the chloroform phase was resolved by thin layer chromatography using a solvent system containing CHCl3:MeOH:HAC:H2O (43:38:5:7) (v:v:v:v), and visualized by autoradiography. The PI([^32P]-3)P spots were then scraped off from the TLC plates, deacylated with 1 ml methylamine:butanol:methanol (42:9:47) (v:v:v) for 4 hours at 53° C., and quantitated using a liquid scintillation counter (LKB 1209 RackBETA).

Some results are limits rather than exact numbers.

The term IC50 denotes the concentration needed to halve the response being measured.

Chain of tyrosine kinase fyn (P06241 whole entry): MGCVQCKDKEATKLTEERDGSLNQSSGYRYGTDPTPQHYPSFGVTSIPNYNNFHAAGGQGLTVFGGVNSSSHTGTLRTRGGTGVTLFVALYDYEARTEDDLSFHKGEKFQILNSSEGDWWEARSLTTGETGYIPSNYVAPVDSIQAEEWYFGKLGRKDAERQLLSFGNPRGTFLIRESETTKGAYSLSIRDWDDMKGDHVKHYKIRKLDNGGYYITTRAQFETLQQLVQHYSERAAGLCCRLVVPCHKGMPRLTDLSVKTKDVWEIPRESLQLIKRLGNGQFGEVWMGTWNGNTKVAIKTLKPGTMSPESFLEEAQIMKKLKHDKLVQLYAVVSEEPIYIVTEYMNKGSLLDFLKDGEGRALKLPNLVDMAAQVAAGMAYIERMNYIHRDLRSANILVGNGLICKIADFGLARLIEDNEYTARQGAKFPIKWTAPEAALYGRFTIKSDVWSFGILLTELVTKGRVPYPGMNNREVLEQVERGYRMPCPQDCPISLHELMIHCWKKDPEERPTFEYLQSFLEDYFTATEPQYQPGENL
T1 sequence (P48736 whole entry, species assumed): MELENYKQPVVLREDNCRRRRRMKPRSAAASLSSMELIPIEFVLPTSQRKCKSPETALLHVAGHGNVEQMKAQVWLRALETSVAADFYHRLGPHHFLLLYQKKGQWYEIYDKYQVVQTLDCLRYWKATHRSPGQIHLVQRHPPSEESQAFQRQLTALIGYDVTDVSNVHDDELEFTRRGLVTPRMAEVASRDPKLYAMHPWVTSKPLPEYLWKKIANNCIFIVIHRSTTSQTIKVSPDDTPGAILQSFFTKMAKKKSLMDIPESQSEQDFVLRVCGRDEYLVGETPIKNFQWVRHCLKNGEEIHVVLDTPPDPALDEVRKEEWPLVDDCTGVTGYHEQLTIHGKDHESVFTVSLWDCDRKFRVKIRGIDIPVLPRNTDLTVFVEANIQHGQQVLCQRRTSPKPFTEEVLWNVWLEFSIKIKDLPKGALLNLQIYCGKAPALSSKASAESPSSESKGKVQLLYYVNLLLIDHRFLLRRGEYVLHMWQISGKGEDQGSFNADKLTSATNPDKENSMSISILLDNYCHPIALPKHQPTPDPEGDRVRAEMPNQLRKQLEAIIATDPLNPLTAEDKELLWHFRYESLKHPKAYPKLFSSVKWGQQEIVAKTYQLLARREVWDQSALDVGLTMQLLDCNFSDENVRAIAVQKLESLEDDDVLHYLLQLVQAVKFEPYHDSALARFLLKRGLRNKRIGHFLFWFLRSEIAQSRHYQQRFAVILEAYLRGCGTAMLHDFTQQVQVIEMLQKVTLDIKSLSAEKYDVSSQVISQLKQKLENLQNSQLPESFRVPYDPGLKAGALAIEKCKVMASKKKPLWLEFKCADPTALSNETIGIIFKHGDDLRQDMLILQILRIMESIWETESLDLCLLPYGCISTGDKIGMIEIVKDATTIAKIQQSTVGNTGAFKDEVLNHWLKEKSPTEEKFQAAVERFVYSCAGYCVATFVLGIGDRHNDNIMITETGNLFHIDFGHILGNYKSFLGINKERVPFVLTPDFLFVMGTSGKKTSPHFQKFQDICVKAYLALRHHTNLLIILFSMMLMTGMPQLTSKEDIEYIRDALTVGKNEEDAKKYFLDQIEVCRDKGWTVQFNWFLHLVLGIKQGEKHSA
Chain of tyrosine kinase EGF (P00533 25-1210): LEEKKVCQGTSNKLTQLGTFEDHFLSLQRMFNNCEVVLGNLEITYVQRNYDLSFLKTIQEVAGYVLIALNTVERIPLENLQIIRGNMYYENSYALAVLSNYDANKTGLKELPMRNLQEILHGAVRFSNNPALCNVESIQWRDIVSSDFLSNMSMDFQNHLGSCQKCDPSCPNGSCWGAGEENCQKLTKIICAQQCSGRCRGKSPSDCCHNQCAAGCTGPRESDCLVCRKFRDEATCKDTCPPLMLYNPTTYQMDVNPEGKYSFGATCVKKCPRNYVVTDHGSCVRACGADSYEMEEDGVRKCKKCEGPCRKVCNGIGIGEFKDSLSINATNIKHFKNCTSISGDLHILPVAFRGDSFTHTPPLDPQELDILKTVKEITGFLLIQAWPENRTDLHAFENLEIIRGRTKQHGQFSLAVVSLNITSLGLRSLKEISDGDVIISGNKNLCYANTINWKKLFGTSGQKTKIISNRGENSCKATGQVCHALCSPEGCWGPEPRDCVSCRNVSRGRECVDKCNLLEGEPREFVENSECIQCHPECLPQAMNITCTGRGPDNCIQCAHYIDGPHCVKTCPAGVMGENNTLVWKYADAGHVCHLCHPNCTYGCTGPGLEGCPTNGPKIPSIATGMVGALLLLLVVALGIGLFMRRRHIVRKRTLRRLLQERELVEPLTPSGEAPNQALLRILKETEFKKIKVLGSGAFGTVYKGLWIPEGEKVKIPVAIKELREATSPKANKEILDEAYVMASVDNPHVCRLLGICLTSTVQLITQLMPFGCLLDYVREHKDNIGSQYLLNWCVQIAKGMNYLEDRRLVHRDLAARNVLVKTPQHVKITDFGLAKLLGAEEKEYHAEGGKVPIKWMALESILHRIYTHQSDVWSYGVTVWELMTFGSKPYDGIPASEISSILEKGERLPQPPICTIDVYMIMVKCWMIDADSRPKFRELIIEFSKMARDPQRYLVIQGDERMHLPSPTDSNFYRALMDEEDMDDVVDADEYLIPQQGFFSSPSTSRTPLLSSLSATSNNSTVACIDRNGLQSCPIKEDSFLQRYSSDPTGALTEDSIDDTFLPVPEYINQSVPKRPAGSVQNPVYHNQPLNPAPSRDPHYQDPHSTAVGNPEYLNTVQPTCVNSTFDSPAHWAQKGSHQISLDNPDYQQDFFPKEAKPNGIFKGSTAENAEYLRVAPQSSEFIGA

As to `O=c1cc(N2CCOCC2)[nH]c2c(Oc3ccccc3)cccc12` [TGX-84, 2-Morpholino-8-phenoxy-4-quinolone], the IC50 is 5 µM on PI3K γ; over 100 µM at tyrosine kinase EGF; 0.1 µM on PI3K α/β isoforms; 100 µM on PI4K; over 100 µM on tyrosine kinase fyn; 0.1 µM in assay [2]. Besides, the “thrombosis formation relative to control” value in assay [1] is “decrease in thrombosis formation relative to control”.
